Laboratory results reported in article PMC7238232, “Acamprosate Is a Substrate of the Human Organic Anion Transporter (OAT) 1 without OAT3 Inhibitory Properties: Implications for Renal Acamprosate Secretion and Drug–Drug Interactions” (Pharmaceutics, 2020).
Values joined by “and” are separate entries in the source; they are usually repeats but may differ in a detail not shown here. Equal values may be shown once. Read-outs that look alike come from different tables or passages of the source.

Experiments:
[1] = tested on: HEK293-Flp-In OAT3 cells; experiment: CellTiter-Glo cell viability assay, OAT3 transfected cells
[2] = tested on: HEK293-Flp-In mock cells; experiment: CellTiter-Glo cell viability assay, mock cells
[3] = tested on: HEK293-Flp-In OAT1 cells; experiment: CellTiter-Glo cell viability assay, OAT1 transfected cells
[4] = tested on: human OAT1; settings: cited from earlier work; for Km: read-out: Km of other OAT1 substrates
[5] = tested on: human kidney slices; set-up: method as in PMID 17255469; settings: read-out: Km of PAH; cited from earlier work
[6] = tested on: HEK293-Flp-In mock cells; experiment: Control uptake studies in HEK293-Flp-In mock cells; settings: for effect on uptake of [14C]-PAH in mock cells: 9.5 µM [14C]-PAH, 200 µM PAH, 300 µM or 0.02–1022 µM probenecid, acamprosate; for effect on uptake of [3H]-E3S in mock cells: 0.02 µM [3H]-E3S, 200 µM E3S, 300 µM or 0.2–1022 µM probenecid, 10,000 µM acamprosate, Lab. 2
Protocol: All uptake experiments were performed on 24- or 96-well plates. Before the experiment initiation, the cells were incubated with either 500 or 200 µL∙well^−1 prewarmed buffer for 10 min at 37 °C in a microplate incubator (VWR International AB, Stockholm, Sweden), without shaking. […] The experiment was stopped by adding 200 µL∙well^−1 of ice-cold buffer and subsequent rinse three times with the same amount of buffer. […] A total of 50 µL of cell lysate from each well was transferred to 96-well Luma plates bottom coated with dry scintillant. Then, 2∙20 µL of each donor and three 50 µL blank samples were applied on the same plate. The dry plates were covered with transparent seals and analyzed using a TopCount NXT Microplate Scintillation and Luminescence Counter (Perkin Elmer, Waltham, MA, USA). The remaining 20 µL cell lysate was neutralized with 20 µL 1M HCl∙well^−1, samples were mixed thoroughly and the total protein content in all the wells was measured using a BCA protein assay kit, microplate method, and a Tecan Safire II fluorometer (Tecan Austria GmbH, Grödig, Austria). […] The total protein content was measured by using a BCA protein assay kit and a FLUOStar Omega fluorescence microplate reader (BMG Labtech, Ortenberg, Germany). The protein assay for the OAT3 and mock cell lines was performed in four independent wells of each cell line, seeded and treated in the same manner as the cells used in the uptake assay. For all the OAT1, OAT3, and mock isotope uptake studies, the radiolabelled tracer accumulation (pmol) in each well was calculated by first determining the activity of the isotope (DPM∙pmol^−1) from the radioactivity (DPM) of the donor sample divided by the theoretical isotope concentration (pmol), then dividing the total radioactivity in the well (DPM) to the specific activity of the isotope (DPM∙pmol^−1).

[7] = Clinical pharmacokinetics in humans (literature); settings: probenecid, oral, calculated from Cmax and fu
[8] = target: T1, OAT3 (Homo sapiens, UniProt Q8TCC7); experiment: [3H]-E3S uptake and its inhibition in HEK293-Flp-In OAT3 cells; assay type: cell-based; settings: 0.02 µM [3H]-E3S; 200 µM E3S, 300 µM probenecid, 1000 or 10,000 µM acamprosate; Lab. 2
T1 sequence (Q8TCC7 1-542): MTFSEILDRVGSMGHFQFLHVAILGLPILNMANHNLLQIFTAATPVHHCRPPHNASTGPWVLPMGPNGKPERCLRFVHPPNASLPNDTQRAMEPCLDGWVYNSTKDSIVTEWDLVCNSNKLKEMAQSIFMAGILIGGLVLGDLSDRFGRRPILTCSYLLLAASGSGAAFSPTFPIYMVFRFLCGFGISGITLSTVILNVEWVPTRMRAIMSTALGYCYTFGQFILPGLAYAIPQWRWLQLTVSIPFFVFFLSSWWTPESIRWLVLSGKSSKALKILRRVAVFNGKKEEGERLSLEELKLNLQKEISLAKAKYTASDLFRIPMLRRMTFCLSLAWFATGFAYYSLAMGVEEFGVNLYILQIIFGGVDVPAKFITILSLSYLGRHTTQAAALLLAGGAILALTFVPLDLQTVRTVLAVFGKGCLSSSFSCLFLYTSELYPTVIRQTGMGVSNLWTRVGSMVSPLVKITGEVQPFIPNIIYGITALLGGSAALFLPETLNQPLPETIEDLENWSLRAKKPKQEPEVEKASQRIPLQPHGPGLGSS
Protocol: All uptake experiments were performed on 24- or 96-well plates. Before the experiment initiation, the cells were incubated with either 500 or 200 µL∙well^−1 prewarmed buffer for 10 min at 37 °C in a microplate incubator (VWR International AB, Stockholm, Sweden), without shaking. […] The experiment was stopped by adding 200 µL∙well^−1 of ice-cold buffer and subsequent rinse three times with the same amount of buffer. In Lab. 1 the sample analysis of the OAT1/OAT3/mock studies consisted in removing the rinsing buffer and lysing the cells with 70 µL 1M NaOH, following by incubation for 60 min at 37 °C and 100 rpm. A total of 50 µL of cell lysate from each well was transferred to 96-well Luma plates bottom coated with dry scintillant. Then, 2∙20 µL of each donor and three 50 µL blank samples were applied on the same plate. The dry plates were covered with transparent seals and analyzed using a TopCount NXT Microplate Scintillation and Luminescence Counter (Perkin Elmer, Waltham, MA, USA). The remaining 20 µL cell lysate was neutralized with 20 µL 1M HCl∙well^−1, samples were mixed thoroughly and the total protein content in all the wells was measured using a BCA protein assay kit, microplate method, and a Tecan Safire II fluorometer (Tecan Austria GmbH, Grödig, Austria). For the experiments in Lab. 2, the cells were lysed by adding 200 µL 0.1% Triton X-100 and incubated for 5 min at 37 °C and 100 rpm. […] The total protein content was measured by using a BCA protein assay kit and a FLUOStar Omega fluorescence microplate reader (BMG Labtech, Ortenberg, Germany). The protein assay for the OAT3 and mock cell lines was performed in four independent wells of each cell line, seeded and treated in the same manner as the cells used in the uptake assay. For all the OAT1, OAT3, and mock isotope uptake studies, the radiolabelled tracer accumulation (pmol) in each well was calculated by first determining the activity of the isotope (DPM∙pmol^−1) from the radioactivity (DPM) of the donor sample divided by the theoretical isotope concentration (pmol), then dividing the total radioactivity in the well (DPM) to the specific activity of the isotope (DPM∙pmol^−1).
A range of preincubation solutions was prepared at the same concentrations of acamprosate applied in the inhibition assays. Acamprosate was dissolved in HBSS buffered with 10 mM HEPES and the pH was adjusted to 7.40 ± 0.01. The preincubation solutions were prewarmed to 37 °C and applied to the corresponding cells after removing the cell growth medium. The preincubation was done for 3 h, at 37 °C, without shaking. After the preincubation, the solutions were removed, and the inhibition experiment was performed as described in the Section 2.6.
The obtained intracellular amounts (pmol) were normalized to the assay time (min) and cell surface area (cm^2) or protein amount (mg protein) to obtain a term hereafter referred to as uptake rate. […] Assuming competitive interaction, equilibrium dissociation constants, Ki, were calculated from the IC50 value for each substrate/inhibitor pair, at substrate Km, using the Cheng–Prusoff equation [24].

[9] = probenecid, oral, cited from earlier work
[10] = tested on: OAT; set-up: method as in PMID 23085876; settings: OAT mediated DDI by probenecid, compared to control; cited from earlier work
[11] = substrate: CC(=O)NCCCS(=O)(=O)O; experiment: Acamprosate intracellular uptake and inhibition of uptake in HEK293-Flp-In OAT1 cells (LC/MS-MS); assay type: cell-based, human; settings: other: HEK293-Flp-In OAT1 cells, 10 min, pH 7.4, Lab. 1
[12] = 3 h, 1000 µM p-aminohippuric acid, 200 µM estrone-3-sulfate (Figure 8A)

CCCCCCCCCCCCOS(=O)(=O)[O-].[Na+] [SDS, sodium dodecyl sulfate]
decrease in cell viability ([1]; 0.5% SDS, 3 h incubation): more than 95%
decrease in cell viability ([2]; 0.5% SDS, 3 h incubation): more than 95%
decrease in cell viability ([3]; 0.5% SDS, 3 h incubation): approximately 50%

CC(=O)Nc1ccc(O)cc1 [acetaminophen]
IC50 ([4]; read-out: IC50 of other drug substances inhibiting OAT1): 639 µM

Nc1nc2c(ncn2COCCO)c(=O)[nH]1 [acyclovir]
Km [4]: 342 µM

O=S(=O)(O)CCSSCCS(=O)(=O)O [dimesna]
Km [4]: 636 µM

Nc1nc(O)c2ncn(COC(CO)CO)c2n1 [ganciclovir]
Km [4]: 896 µM

CN(Cc1cnc2nc(N)nc(N)c2n1)c1ccc(C(=O)N[C@@H](CCC(=O)O)C(=O)O)cc1 [methotrexate]
Km [4]: 554 to 724 µM

Nc1ccc(C(=O)NCC(=O)O)cc1 [p-aminohippuric acid]
Km [5]: ~39 µM
effect on uptake of [14C]-PAH in mock cells ([6]; Lab. 1): no effect
saturability of dose-dependent substrate uptake in mock cells ([6]; same substrate concentrations as in transfected cells, acamprosate 0.33–3300 µM): not saturable
effect on cell viability [1, 12]: did not decrease cell viability
effect on cell viability [2, 12]: did not decrease cell viability
effect on cell viability ([3]; 3 h, 1000 µM p-aminohippuric acid, 200 µM estrone-3-sulfate (Figure 8B)): did not decrease cell viability

CCCN(CCC)S(=O)(=O)c1ccc(C(=O)O)cc1 [probenecid]
Cmax,u ([7]; 500 mg): 8.66 ± 2.09 µM
Cmax,u ([7]; 1000 mg): 26.83 ± 10.37 µM
Cmax,u ([7]; 2000 mg): 88.53 ± 28.24 µM
effect on uptake of [3H]-E3S in OAT3 expressing cells [8]: significantly decreased
Cmax ([9]; 500 mg): 124 ± 30 µM
fu, fraction unbound in plasma ([9]; 500 mg): 0.07 [53]
Cmax ([9]; 1000 mg): 244 ± 94 µM
fu, fraction unbound in plasma ([9]; 1000 mg): 0.11 [53]
Cmax ([9]; 2000 mg): 521 ± 166 µM
fu, fraction unbound in plasma ([9]; 2000 mg): 0.17 [53]
change in AUC of other inhibited drugs [10]: 1.1–2.4 fold
change in CLR of other inhibited drugs [10]: 0.3–0.7 fold
effect on uptake of [3H]-E3S in mock cells [6]: no inhibition
effect on uptake of [3H]-E3S in mock cells ([6]; listed as Probenecid): no inhibitory effect
effect on uptake of [14C]-PAH in mock cells ([6]; Lab. 1): no effect
effect on uptake of [14C]-PAH in mock cells ([6]; Lab. 1, listed as Probenecid): no inhibitory effect
effect on acamprosate uptake in mock cells ([6]; 200 µM acamprosate, 0.02–1022 µM probenecid, Lab. 1): no inhibitory effect

B1: OAT1 (Homo sapiens) (protein)
chain: MAFNDLLQQVGGVGRFQQIQVTLVVLPLLLMASHNTLQNFTAAIPTHHCRPPADANLSKNGGLEVWLPRDRQGQPESCLRFTSPQWGLPFLNGTEANGTGATEPCTDGWIYDNSTFPSTIVTEWDLVCSHRALRQLAQSLYMVGVLLGAMVFGYLADRLGRRKVLILNYLQTAVSGTCAAFAPNFPIYCAFRLLSGMALAGISLNCMTLNVEWMPIHTRACVGTLIGYVYSLGQFLLAGVAYAVPHWRHLQLLVSAPFFAFFIYSWFFIESARWHSSSGRLDLTLRALQRVARINGKREEGAKLSMEVLRASLQKELTMGKGQASAMELLRCPTLRHLFLCLSMLWFATSFAYYGLVMDLQGFGVSIYLIQVIFGAVDLPAKLVGFLVINSLGRRPAQMAALLLAGICILLNGVIPQDQSIVRTSLAVLGKGCLAASFNCIFLYTGELYPTMIRQTGMGMGSTMARVGSIVSPLVSMTAELYPSMPLFIYGAVPVAASAVTVLLPETLGQPLPDTVQDLESRWAPTQKEAGIYPRKGKQTRQQQEHQKYMVPLQASAQEKNGL
notes: expressed in transfected cells; host or cells: HEK293-Flp-In
Km [11]: 700 µM and 698 ± 192 µM
